Values quoted from earlier work in patent US5525603A, “Compositions, methods and kits for potentiating antitumor effect and for treating tumor” (priority 1991, dated 1996).

How the values were obtained:
[1] = system: oral cavity, gastrointestinal tissue; details: prolonged presence in the living body, continuous intravenous infusion of 5-FU alone
[2] = in combination with 5-FU or 5-FU derivative

| Compound | disorder (inflammation) in the oral cavity, gastrointestinal tissue and the like [1] | effect on antitumor effect of 5-FU or 5-FU derivative [2] | inhibition of inflammation caused by 5-FU or 5-FU derivative [2] |
| --- | --- | --- | --- |
| O=c1[nH]cc(F)c(=O)[nH]1 [5-FU, 5-fluorouracil] | likely to cause a disorder (inflammation) in the oral cavity, gastrointestinal tissue and the like |  |  |
| O=C(O)c1nc(=O)[nH]c(=O)[nH]1 [oxonic acid] |  | reduces the antitumor effect of 5-FU or 5-FU derivative | can inhibit the occurrence of inflammation caused by 5-FU or 5-FU derivative |
